In patent US20260224536A1, “ARYL HETEROCYCLIC KV1.3 INHIBITOR, PREPARATION METHOD THEREFOR, AND USE THEREOF” (SHANGHAI SHENSHI WISE TECHNOLOGY CO., LTD., priority 2022, published 2026):

Each compound was assayed against Kv1.3 potassium channel (Homo sapiens, UniProt P22001) (assay: Whole-cell patch-clamp assay for inhibitory activity against Kv1.3 (peak current)). Conditions: HEK293 cells stably expressing Kv1.3, patch-clamp.
Kv1.3 potassium channel, sequence (P22001 whole entry): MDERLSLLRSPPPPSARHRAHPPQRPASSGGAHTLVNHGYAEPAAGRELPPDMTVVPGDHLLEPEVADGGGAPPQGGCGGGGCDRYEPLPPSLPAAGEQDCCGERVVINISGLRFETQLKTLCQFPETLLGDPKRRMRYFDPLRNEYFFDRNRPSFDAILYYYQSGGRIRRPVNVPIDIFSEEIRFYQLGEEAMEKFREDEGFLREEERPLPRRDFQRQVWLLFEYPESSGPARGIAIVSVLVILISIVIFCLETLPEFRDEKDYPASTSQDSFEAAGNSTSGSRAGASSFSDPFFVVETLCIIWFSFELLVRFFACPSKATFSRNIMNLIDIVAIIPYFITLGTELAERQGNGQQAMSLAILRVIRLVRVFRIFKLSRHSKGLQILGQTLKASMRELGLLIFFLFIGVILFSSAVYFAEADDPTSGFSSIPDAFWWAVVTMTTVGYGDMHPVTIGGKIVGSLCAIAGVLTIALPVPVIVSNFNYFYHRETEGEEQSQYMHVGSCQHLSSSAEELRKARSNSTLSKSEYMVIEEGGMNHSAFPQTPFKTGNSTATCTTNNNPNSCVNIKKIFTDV
Assay type: cell-based
Excerpt: The voltage stimulation protocol for recording whole-cell Kv1.X potassium currents via patch-clamp was as follows. After formation of a whole-cell seal, the cell membrane voltage was clamped at −80 mV, and then stepped to +40 mV for 500 ms. […] The test data were acquired by EPC-10 amplifier (HEKA) and stored in the PatchMaster (HEKA) software. Recording electrodes were drawn from capillary glass tubes using a microelectrode puller. Under an inverted microscope, the recording electrode was brought into contact with the cell surface by manipulating a microelectrode manipulator. Negative-pressure suction was applied to form a GΩ seal. After formation of the […], a rapid capacitance compensation was given. The application of negative pressure was continued to rupture the cell membrane, forming a whole-cell recording mode. Then, a slow capacitance compensation was given, and the membrane capacitance and series resistance were recorded. No current leakage compensation was provided. Once the whole-cell recorded Kv1.X current stabilized, drug administration was started. Each drug concentration was allowed to act for 5 min (or until the current reached a steady state) before the next concentration was tested. Multiple concentrations were tested for each test compound. The cover glass plated with the cells was placed in a recording bath of the inverted microscope. The test compound and the compound-free extracellular fluid were allowed to sequentially flow through the recording bath from low concentrations to high concentrations using a gravity perfusion method, thus acting on the cells, and liquid exchange was performed using a vacuum pump during recording. For each cell, the current detected in the compound-free extracellular liquid was used as its own control group. The test was independently repeated three times using at least three cells per concentration. All electrophysiological experiments were performed at room temperature. […] First, the peak current after the action of each drug concentration and the peak current of the blank control were standardized and then the inhibition rate corresponding to each drug concentration was calculated Subsequently, the mean, standard deviation (SD), and standard error (SE) were calculated for the inhibition rate corresponding to each concentration. Using the above equation, the IC50 value for each compound was calculated, and the dose-dependent effect was subjected to non-linear fitting, where IC50 is the half maximal inhibitory concentration. The IC50 calculation and the curve fitting were performed using the GraphPad Prism software.
Compound COc1cccc(-c2nnc3n2C[C@H](c2c(O)ccc(Cl)c2Cl)C3)c1 [Example 76, (S)-3,4-Dichloro-2-(3-(3-methoxyphenyl)-6,7-dihydro-5H-pyrrolo[2,1-c][1,2,4]triazol-6-yl)phenol] has an IC50 of 27.9 nM. COc1ccc(-c2cnc3n2CC(c2c(O)ccc(Cl)c2Cl)C3)cc1 (stereo not shown) [Example 96, 3,4-Dichloro-2-(3-(4-methoxyphenyl)-6,7-dihydro-5H-pyrrolo[1,2-a]imidazol-6-yl)phenol] gave an IC50 of 51.6 nM. CC(C)(C)c1nnc2n1CC(c1c(O)ccc(Cl)c1Cl)C2 (stereo not shown) [Example 16, 2-(3-(tert-Butyl)-6,7-dihydro-5H-pyrrolo[2,1-c][1,2,4]triazol-6-yl)-3,4-dichlorophenol] was tested, and the IC50 was 74.7 nM. Nc1cc(-c2nnc3n2C[C@H](c2c(O)ccc(Cl)c2Cl)C3)ccn1 [Example 43, (S)-2-(3-(2-Aminopyridin-4-yl)-6,7-dihydro-5H-pyrrolo[2,1-c][1,2,4]triazol-6-yl)-3,4-dichlorophenol] was tested, and the IC50 was 19.7 nM. Compound Cn1cc(-c2cnc3n2CC(c2c(O)ccc(Cl)c2Cl)C3)cn1 (stereo not shown) [Example 97, 3,4-Dichloro-2-(3-(1-methyl-1H-pyrazol-4-yl)-6,7-dihydro-5H-pyrrolo[1,2-a]imidazol-6-yl)phenol] has an IC50 of 11.7 nM. CC(C)(C)n1cc(-c2cnc3n2CC(c2c(O)ccc(Cl)c2Cl)C3)cn1 (stereo not shown) [Example 98, 2-(3-(1-(tert-Butyl)-1H-pyrazol-4-yl)-6,7-dihydro-5H-pyrrolo[1,2-a]imidazol-6-yl)-3,4-dichlorophenol] gave an IC50 of 25.5 nM. Oc1ccc(Cl)c(Cl)c1[C@@H]1Cc2nnc([C@@]34COCC3C4)n2C1 (stereo partly drawn) [Example 72, 2-((6S)-3-((1S)-3-Oxabicyclo[3.1.0]hexan-1-yl)-6,7-dihydro-5H-pyrrolo[2,1-c][1,2,4]triazol-6-yl)-3,4-dichlorophenol] was tested, and the IC50 was 39.1 nM. O=C(c1nnc2n1CC(c1c(O)ccc(Cl)c1Cl)C2)N1CCOCC1 (stereo not shown) [Example 21, (6-(2,3-Dichloro-6-hydroxyphenyl)-6,7-dihydro-5H-pyrrolo[2,1-c][1,2,4]triazol-3-yl)(morpholino)methanone] showed an IC50 of 48.6 nM. In the case of Oc1ccc(Cl)c(Cl)c1[C@@H]1Cc2nnc(C3CCN(C4CCCCC4)CC3)n2C1 [Example 78, (S)-3,4-Dichloro-2-(3-(1-cyclohexylpiperidin-4-yl)-6,7-dihydro-5H-pyrrolo[2,1-c][1,2,4]triazol-6-yl)phenol], the IC50 is reported as 12.6 nM. Compound Oc1ccc(Cl)c(Cl)c1[C@@H]1Cc2nnc(C(F)(F)F)n2C1 [Example 86, (S)-3,4-Dichloro-2-(3-(trifluoromethyl)-6,7-dihydro-5H-pyrrolo[2,1-c][1,2,4]triazol-6-yl)phenol] has an IC50 of 25 nM. In the case of O=c1n([C@@H]2CCOC2)nc2n1C[C@H](c1c(O)ccc(Cl)c1Cl)C2 [Example 110, (S)-6-(2,3-dichloro-6-hydroxyphenyl)-2-((R)-tetrahydrofuran-3-yl)-2,5,6,7-tetrahydro-3H-pyrrolo[2,1-c][1,2,4]triazol-3-one], the IC50 is reported as 20.1 nM. Work on OCc1nnc2n1C[C@@H](c1c(O)ccc(Cl)c1Cl)C2 [Example 1, (R)-3,4-Dichloro-2-(3-(hydroxymethyl)-6,7-dihydro-5H-pyrrolo[2,1-c][1,2,4]triazol-6-yl)phenol] yielded an IC50 of 94.3 nM. CC(C)N1CCC(c2nnc3n2C[C@H](c2c(O)ccc(Cl)c2Cl)C3)CC1 [Example 36, (S)-3,4-Dichloro-2-(3-(1-isopropylpiperidin-4-yl)-6,7-dihydro-5H-pyrrolo[2,1-c][1,2,4]triazol-6-yl)phenol] gave an IC50 of 6.8 nM. Nc1ccc(-c2nnc3n2C[C@H](c2c(O)ccc(Cl)c2Cl)C3)cn1 [Example 42, (S)-2-(3-(6-Aminopyridin-3-yl)-6,7-dihydro-5H-pyrrolo[2,1-c][1,2,4]triazol-6-yl)-3,4-dichlorophenol] showed an IC50 of 13 nM. Compound O=C1CC(c2nnc3n2C[C@H](c2c(O)ccc(Cl)c2Cl)C3)CCN1 (single isomer, unassigned) [Example 57] has an IC50 of 11.4 nM. CC(C)N1CCC(Cc2nnc3n2CC(c2c(O)ccc(Cl)c2Cl)C3)CC1 (stereo not shown) [Example 18, 3,4-Dichloro-2-(3-((1-isopropylpiperidin-4-yl)methyl)-6,7-dihydro-5H-pyrrolo[2,1-c][1,2,4]triazol-6-yl)phenol] showed an IC50 of 5.76 nM. O=C(c1nnc2n1CC(c1c(O)ccc(Cl)c1Cl)C2)N1CCNCC1 (stereo not shown) [Example 13, (6-(2,3-Dichloro-6-hydroxyphenyl)-6,7-dihydro-5H-pyrrolo[2,1-c][1,2,4]triazol-3-yl)(piperazin-1-yl)methanone] was tested, and the IC50 was 5.09 nM. Work on COC(=O)N1CC[C@@H](c2nnc3n2C[C@H](c2c(O)ccc(Cl)c2Cl)C3)C1 [Example 51, methyl (R)-3-((S)-6-(2,3-dichloro-6-hydroxyphenyl)-6,7-dihydro-5H-pyrrolo[2,1-c][1,2,4]triazol-3-yl)pyrrolidine-1-carboxylate] yielded an IC50 of 7.24 nM. With Oc1ccc(Cl)c(Cl)c1C1Cc2nnc(-c3ccc4[nH]ncc4c3)n2C1 (stereo not shown) [Example 7, 2-(3-(1H-Indazol-5-yl)-6,7-dihydro-5H-pyrrolo[2,1-c][1,2,4]triazol-6-yl)-3,4-dichlorophenol] the IC50 was 12 nM. For CC(C)N1CCC(Oc2nnc3n2CC(c2c(O)ccc(Cl)c2Cl)C3)CC1 (stereo not shown) [Example 102, 3,4-dichloro-2-(3-((1-isopropylpiperidin-4-yl)oxy)-6,7-dihydro-5H-pyrrolo[2,1-c][1,2,4]triazol-6-yl)phenol], the IC50 was 6.99 nM. In the case of Oc1ccc(Cl)c(Cl)c1C1Cc2nnc(CN3CCC(O)C3)n2C1 (stereo not shown) [Example 19, 1-((6-(2,3-Dichloro-6-hydroxyphenyl)-6,7-dihydro-5H-pyrrolo[2,1-c][1,2,4]triazol-3-yl)methyl)pyrrolidin-3-ol], the IC50 is reported as 46.3 nM. Oc1ccc(Cl)c(Cl)c1[C@@H]1Cc2nnc([C@@H]3CCCOC3)n2C1 [Example 68, 3,4-Dichloro-2-((S)-3-((S)-tetrahydro-2H-pyran-3-yl)-6,7-dihydro-5H-pyrrolo[2,1-c][1,2,4]triazol-6-yl)phenol] gave an IC50 of 16 nM. Compound Oc1ccc(Cl)c(Cl)c1[C@@H]1Cc2nnc(C3CNC3)n2C1 [Example 45, (S)-2-(3-(Azetidin-3-yl)-6,7-dihydro-5H-pyrrolo[2,1-c][1,2,4]triazol-6-yl)-3,4-dichlorophenol] has an IC50 of 1.5 nM. For Oc1ccc(Cl)c(Cl)c1[C@@H]1Cc2nnc([C@H]3C[C@@H]4CC[C@H]3O4)n2C1 [Example 62, 2-((S)-3-((1R,2R,4S)-7-Oxabicyclo[2.2.1]heptan-2-yl)-6,7-dihydro-5H-pyrrolo[2,1-c][1,2,4]triazol-6-yl)-3,4-dichlorophenol], the IC50 was 16.4 nM. With O=C1CC(c2nnc3n2C[C@H](c2c(O)ccc(Cl)c2Cl)C3)CCN1 (single isomer, unassigned) [Example 56] the IC50 was 20.6 nM. For CC(C)N1CCC(c2cnc3n2C[C@@H](c2c(O)ccc(Cl)c2Cl)C3)CC1 [Example 95, (R)-3,4-dichloro-2-(3-(1-isopropylpiperidin-4-yl)-6,7-dihydro-5H-pyrrolo[1,2-a]imidazol-6-yl)phenol], the IC50 was 6.06 nM. CC1(C)CC(c2nnc3n2CC(c2c(O)ccc(Cl)c2Cl)C3)CCN1 (stereo not shown) [Example 89, 3,4-Dichloro-2-(3-(2,2-dimethylpiperidin-4-yl)-6,7-dihydro-5H-pyrrolo[2,1-c][1,2,4]triazol-6-yl)phenol] gave an IC50 of 8.25 nM. With Cn1ccc(-c2nnc3n2C[C@H](c2c(O)ccc(Cl)c2Cl)C3)cc1=O [Example 39, (S)-4-(6-(2,3-Dichloro-6-hydroxyphenyl)-6,7-dihydro-5H-pyrrolo[2,1-c][1,2,4]triazol-3-yl)-1-methylpyidin-2(1H)-one] the IC50 was 52.1 nM. In the case of CC(C)N1CCN(c2cnc3n2CC(c2c(O)ccc(Cl)c2Cl)C3)CC1 (stereo not shown) [Example 100, 3,4-Dichloro-2-(3-(4-isopropylpiperazin-1-yl)-6,7-dihydro-5H-pyrrolo[1,2-a]imidazol-6-yl)phenol], the IC50 is reported as 9.89 nM. For N#Cc1cccc(-c2nnc3n2CC(c2c(O)ccc(Cl)c2Cl)C3)c1 (stereo not shown) [Example 9, 3-(6-(2,3-dichloro-6-hydroxyphenyl)-6,7-dihydro-5H-pyrrolo[2,1-c][1,2,4]triazol-3-yl)benzonitrile], the IC50 was 17.1 nM. Compound Oc1ccc(Cl)c(Cl)c1[C@@H]1Cc2nnc([C@@H]3CCN(C4CCOCC4)C3)n2C1 [Example 83, 3,4-Dichloro-2-((S)-3-((R)-1-(tetrahydro-2H-pyran-4-yl)pyrrolidin-3-yl)-6,7-dihydro-5H-pyrrolo[2,1-c][1,2,4]triazol-6-yl)phenol] has an IC50 of 3.99 nM. With Oc1ccc(Cl)c(Cl)c1C1Cc2nnc(C3CCCCC3)n2C1 (stereo not shown) [Example 5, 3,4-Dichloro-2-(3-cyclohexyl-6,7-dihydro-5H-pyrrolo[2,1-c][1,2,4]triazol-6-yl)phenol] the IC50 was 39 nM. In the case of CCn1cc2c(n1)CC(c1c(O)ccc(Cl)c1Cl)C2 (stereo not shown) [Example 112, 3,4-Dichloro-2-(2-ethyl-2,4,5,6-tetrahydrocyclopenta[c]pyrazol-5-yl)phenol], the IC50 is reported as 43.1 nM. Work on CCc1cnc2n1C[C@H](c1c(O)ccc(Cl)c1Cl)C2 [Example 92, (S)-3,4-Dichloro-2-(3-ethyl-6,7-dihydro-5H-pyrrolo[1,2-a]imidazol-6-yl)phenol] yielded an IC50 of 5.51 nM.
